Measurements taken from patent US20260022334A1, “COMPOSITION, METHOD, AND APPLICATION THEREOF FOR IMPROVING THE QUALITY OF IN VITRO MATURATION OF OOCYTES AND PREGNANCY RATE OF EMBRYOS AFTER IN VITRO FERTILIZATION” (CHINA AGRICULTURAL UNIVERSITY, priority 2024, published 2026).
Marks after values point to notes of the source that are not given here.

Legend:
[1] = tested on: ovine oocytes (cumulus-oocyte complexes); assay: In vitro maturation of ovine oocytes, in vitro fertilization and embryo culture: embryo development rate; type: cell-based, sheep; conditions: mean ± standard error; for Cleavage rate (%): 48 h after IVF, modulators added to in vitro maturation medium; for D7 blastocyst rate (%): day 7 of culture
Method: Ovine ovaries were collected in a slaughterhouse, placed in normal saline at 35° C., and transported to the laboratory within 2 h. The ovaries were washed three times with normal saline, and follicles were punctured using a 20 G needle containing 5 mL of oocyte collection medium to release cumulus-oocyte complexes. The COCs with uniform cytoplasm and at least 3 layers of cumulus cells were collected Under a stereomicroscope.
(§1) • Control group: a routine in vitro maturation group. • Treatment group 1: a VitC (100 μg/mL)—only administration group. • Treatment group 2: an L-carnitine (1 mg/mL)—only administration group. • Treatment group 3: a THPO (200 ng/mL)—only administration group. • Treatment group 4: a VitC (50 μg/mL) and L-carnitine (500 μg/mL) combined administration group. • Treatment group 5: a VitC (50 μg/mL) and THPO (100 ng/ml) combined administration group. • Treatment group 6: an L-carnitine (500 μg/mL) and THPO (100 ng/ml) combined administration group. • Treatment group 7: a VitC (33.3 μg/mL), L-carnitine (333.3 μg/mL), and THPO (66.7 ng/mL) combined administration group.
(§2) The control group was a basal in vitro maturation medium, and the treatment groups (1-7) were prepared by adding different components or combined components to the basal maturation medium.
The collected ovine oocytes were washed three times with washing medium, then washed 3 times with the basal in vitro oocyte maturation medium pre-equilibrated for 3 h in advance, transferred to the in vitro maturation culture mediums of the control and experimental groups, and incubated in a 5% CO2, 38.5° C. incubator with saturated humidity for 22-24 h. Four-well plates were used for culture, and each well contained 600 μL of in vitro maturation culture medium and 30-35 ovine cumulus-oocyte complexes, and was covered with 300 μL of mineral oil. In vitro maturation of ovine oocytes was performed according to different groups.
For the control group, the basal in vitro oocyte maturation medium was used. The basal in vitro oocyte maturation medium was prepared as follows: TCM199+10% estrus ovine serum+1 μg/mL follicle-stimulating hormone+1 μg/mL luteinizing hormone+1 μg/mL β-estradiol+12 μg/mL DL-cysteine+100 μg/mL streptomycin+100 IU/mL penicillin.
After in vitro maturation, the matured oocytes were subjected to in vitro fertilization (IVF). Briefly, COCs were washed three times in synthetic oviductal fluid (SOF) medium with 0.2% hyaluronidase to remove cumulus cells and transferred into the IVF medium, which consisted of synthetic oviduct fluid (SOF) medium containing 2% estrus sheep serum (ESS), 3 mg/mL BSA, 6 IU/mL heparin sodium and 50 IU/mL gentamicin. For IVF, frozen semen was removed from the liquid nitrogen and thawed in a water bath at 39° C. for 1 min. Then, the sperm diluted with IVF medium and swimming up for 30 min at 38.5° C. in a humidified atmosphere at 5% CO2. The upper layer of semen was transferred into a 1.5 mL tube and then centrifuge for 5 min at 2000 rpm. The spermatozoa were carefully collected from the bottom of the centrifuge tube and added into each IVF medium with a final concentration of approximately 1×10^6 sperm/mL. Then, the oocyte and sperm were co-incubated for 20 h at 38.5° C. with 5% CO2 in a humidified atmosphere. All reagents were purchased from Sigma-Aldrich.
After IVF, presumptive zygotes were washed three times in IVC medium and then transferred to SOF medium supplemented with 1% BME-essential amino acids, 1% MEM-nonessential amino acids, 1 mM glutamine and 3 mg/mL BSA and cultured at 38.6° C. in a humidified environment with an 88% N2, 5% CO2, 7% O2. The cleavage rate and blastocyst rate were recorded at 48 h and 6-7 d after IVF. After 48 h of culture, the cleavage rate was calculated. The culture was continued until day 7, and the blastocyst rate was calculated.

ovine blastocysts = assay: Total number of blastocyst cells (DAPI staining) after in vitro maturation of ovine oocytes; type: cell-based, sheep; conditions: ovine 7d blastocysts, FIG. 3
Excerpt: FIG. 3 Statistical analysis of the total number of blastocyst cells after different treatments of sheep oocyte in vitro maturation. Among them, the control group is a routine in vitro maturation group, and treatment groups 1-7 are: VitC alone group, L-carnitine alone group, THPO alone group, VitC and L-carnitine combined administration group, VitC and THPO combined administration group, L-carnitine and THPO combined administration group, VitC, L-carnitine, and THPO combined administration group. The total number of blastocyst cells were obtained by counting cells after DAPI immunofluorescence staining.
as §1
The 7d blastocysts were collected, washed 3 times with PBS containing 1 mg/ml PVA (PBS-PVA), and stained with DAPI, and the total blastocyst cell number was then determined. Specifically, the zona pellucida was removed with Tyrode's medium, and the blastocysts were then fixed in PBS containing 4% polyformaldehyde for 30 min and permeabilized using PBS containing 0.5% TritonX-100 for 20 min at room temperature. The nuclei of the blastocysts were stained with 1 μg/mL DAPI, incubated for 5 min in the dark, and then mounted onto slides. DAPI cells were observed and counted under a fluorescence microscope.

recipient ewes = assay: Ovine embryo transfer and pregnancy assessment; type: in vivo, sheep; conditions: for Pregnancy rate (%): 45 d after embryo transfer; for Number of pregnancies: B-ultrasonography 45 d after embryo transfer
Method: as §1
Transferrable embryo were selected and one blastocyst was transferred into recipient ewes using a laparoscopic procedure. Prior to embryo transfer, the ewes were fasted for at least 20 h. The embryos were transplanted into recipients with an assistant of endoscopic apparatus. The conception was detected at 45 d after embryo transfer by using B-ultrasonography and the embryo transfer pregnancy rate was calculated using the formula: […]

bovine oocytes (COCs) = assay: In vitro maturation of bovine oocytes, in vitro fertilization and embryo culture: embryo development rate; type: cell-based; conditions: for D8 blastocyst rate (%): 8 d postinsemination, number of blastocysts/number of oocytes; for effect on 48-h cleavage rate compared with the control group / effect on blastocyst development efficiency compared with the control group: in words; for 48-h cleavage rate (%): number of two-cell embryos/number of oocytes
Method: (§3) • Control group: a routine in vitro maturation group; • Treatment group 1: a VitC (100 μg/mL)—only administration group; • Treatment group 2: an L-carnitine (1 mg/mL)—only administration group; • Treatment group 3: a THPO (200 ng/mL)—only administration group; • Treatment group 4: a VitC (50 μg/mL) and L-carnitine (500 μg/mL) combined administration group; • Treatment group 5: a VitC (50 μg/mL) and THPO (100 ng/ml) combined administration group; • Treatment group 6: an L-carnitine (500 μg/mL) and THPO (100 ng/mL) combined administration group; • Treatment group 7: a VitC (33.3 μg/mL), L-carnitine (333.3 μg/mL), and THPO (66.7 ng/mL) combined administration group.
as §2
Bovine ovaries were collected from a local slaughterhouse (Dachang Hui Autonomous County, Hebei Province, China) and transported to the laboratory within two hours in saline solution containing penicillin and streptomycin. In the laboratory, bovine COCs were aspirated from follicles with a diameter of 2-8 mm to M199-HEPES containing 20 μg/mL heparin sodium, 44 μg/mL sodium pyruvate, 70 μg/mL penicillin and 50 μg/mL streptomycin. The aspirated follicular fluid was placed in 50 ml conical tubes and maintained for a period for sedimentation. The upper portion of the liquid was removed and the remaining portion was then transferred to wash buffer. COCs with a homogenous, evenly granulated ooplasm surrounded by at least three layers of compact cumulus cells were selected under a stereomicroscope for experiments. COCs were washed three times in BO-IVM medium and incubated for 22 h at 38.5° C. in a humidified atmosphere under 5% CO2 in groups of 50 containing 500 μL BO-IVM medium in four-well dishes covered with mineral oil.
After 22 h of IVM, 20 COCs were transferred to 100 μL BO-IVF medium covered with mineral oil in Petri dish (60×15 mm). Frozen-thawed sperm was purified using BO-SemenPrep. Spermatozoa were selected by Percoll method and the final concentration was adjusted to 1×10^6 in each drop. They were co-incubated in BO-IVF medium with humidified 5% CO2 in air at 38.5° C. for 18 h. Thereafter, the presumptive zygotes were transferred to BO-IVC medium in four-well dishes covered with mineral oil, and incubated with humidified 5% CO2 in air at 38.5° C. for 8 days. The cleavage rate was determined at 48 h and the blastocyst rate was estimated at 8d postinsemination.

bovine recipients = assay: Bovine embryo transfer and pregnancy rate assessment; type: in vivo; conditions: for Number of pregnancies: B-mode ultrasonography days 45-50; for Pregnancy rate (%): days 45-50, pregnant/recipient female animals
Method: as §3
The bovine recipients were restrained and anesthetized according to requirement of sartificial insemination. After the vulva was cleaned and disinfected, the cervix was opened and the fallopian tubes were flushed. The embryo transfer catheter was inserted deep into one uterine horn using the rectal palpation method. The plunger of a syringe connected to embryos transfer catheter was pushed to inject the embryos that had developed to the blastocyst stage after in vitro fertilization, and the embryo transfer catheter was then withdrawn. The pregnancy status was assessed by B-mode ultrasonography on days 45-50 of pregnancy, and the pregnancy rate was calculated.

Row | Compound | Cleavage rate (%) [1] | D7 blastocyst rate (%) [1] | total number of blastocyst cells (ovine blastocysts) | Pregnancy rate (%) (recipient ewes) | Number of pregnancies (recipient ewes) | D8 blastocyst rate (%) (bovine oocytes (COCs)) | effect on 48-h cleavage rate compared with the control group (bovine oocytes (COCs)) | effect on blastocyst development efficiency compared with the control group (bovine oocytes (COCs)) | 48-h cleavage rate (%) (bovine oocytes (COCs)) | Number of pregnancies (bovine recipients) | Pregnancy rate (%) (bovine recipients) | effect on pregnancy rate after embryo transfer compared with the control group (bovine recipients; in words)
1 | C[N+](C)(C)C[C@H](O)CC(=O)[O-] [Treatment group 2, L-carnitine] | 74.32 ± 2.31^a % | 37.61 ± 1.85^b % | 82.6±2.7 | 54.2^a % | 26 | 32.4 ± 0.8^b % | did not affect | enhanced | 69.5 ± 4.3 | 12 | 46.2%^b | can improve
2 | O=C1O[C@H]([C@@H](O)CO)C(O)=C1O [Treatment group 1, vitamin C] | 75.64 ± 2.83^a % | 38.79 ± 1.97^b % | 80.6±3.2 | 50.0^a % | 25 | 33.1 ± 1.3^b % | did not affect | enhanced | 68.7 ± 3.1 | 11 | 42.3%^a | 
3 | Thrombopoietin [Treatment group 3] | 75.38 ± 2.43^a % | 38.01 ± 1.50^b % | 79.4±2.3 | 53.1^a % | 26 | 32.2 ± 2.0^b % |  |  | 67.4 ± 3.8 | 11 | 42.3%^a | 
